How the values were obtained:
[1] = target: T1, human A1 receptors (Homo sapiens, UniProt P30542); experiment: [^3H] DPCPX binding to human A1 receptors expressed in CHO cells (antagonist radioligand); details: human A1, CHO cells, antagonist radioligand; read-out: [^3H] DPCPX binding to human A1 receptors expressed in CHO cells Ki
T1 construct: expressed in transfected cells; host or cells: CHO cells
T1 sequence (P30542 1-326): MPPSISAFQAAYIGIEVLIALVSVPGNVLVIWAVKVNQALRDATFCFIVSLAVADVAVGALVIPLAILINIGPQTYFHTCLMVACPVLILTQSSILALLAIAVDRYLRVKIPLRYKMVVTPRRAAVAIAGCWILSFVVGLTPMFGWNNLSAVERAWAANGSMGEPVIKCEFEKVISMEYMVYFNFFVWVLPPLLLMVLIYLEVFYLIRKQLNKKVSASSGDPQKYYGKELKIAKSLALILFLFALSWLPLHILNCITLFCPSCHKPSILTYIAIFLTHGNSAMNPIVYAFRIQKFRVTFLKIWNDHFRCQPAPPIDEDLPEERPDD
Protocol: Binding assay methodology for the human data with antagonist radioligands. […] Arch. […] The cells were grown adherently and maintained in Dulbecco's Modified Eagles Medium with nutrient mixture F12 (DMEM/F12) without nucleosides, containing 10% fetal calf serum, penicillin (100 U/ml), streptomycin (100 μg/ml), L-glutamine (2 mM) and Geneticin (G418, 0.2 mg/ml) at 37° C. in 5% CO2/95% air. Cells were split 2 or 3 times weekly at a ratio between 1:5 and 1:20. For membrane preparation the culture medium was removed and the cells were washed with PBS and scraped off T75 flasks in ice-cold hypotonic buffer (5 mM Tris HCl, 2 mM EDTA, pH 7.4). The cell suspension was homogenized with Polytron and the homogenate was spun for 10 min at 1,000×g. The supernatant was then centrifuged for 30 min at 100,000×g. The membrane pellet was resuspended in 50 mM Tris HCl buffer pH 7.4 (for A3 adenosine receptors: 50 mM Tris HCl, 10 mM MgCl2, 1 mM EDTA) and incubated with 3 UI/ml of Adenosine deaminase for 30 min at 37° C. Then the suspension was frozen at −80° C. HEK 293 cells transfected with the human recombinant A2B adenosine receptor were obtained from Receptor Biology, Inc. (Beltsville, Md., USA).
Displacement experiments were performed for 120 min at 25° C. in 0.2 ml of 50 mM Tris HCl buffer pH 7.4 containing 1 nM [3H]-DPCPX, diluted membranes (50 μg of protein/assay) and at least 6-8 different concentrations of antagonists studied. Non-specific binding was determined in the presence of 10 μM of CHA and this was always ≦10% of the total binding.

[2] = target: T2, human A3 receptors (Homo sapiens, UniProt P0DMS8); experiment: [^3H] MRE3008F20 binding to human A3 receptors expressed in CHO cells (antagonist radioligand); details: human A3, CHO cells, antagonist radioligand; read-out: [^3H] MRE3008F20 binding to human A3 receptors expressed in CHO cells Ki
T2 construct: expressed in transfected cells; host or cells: CHO cells
T2 sequence (P0DMS8 1-318): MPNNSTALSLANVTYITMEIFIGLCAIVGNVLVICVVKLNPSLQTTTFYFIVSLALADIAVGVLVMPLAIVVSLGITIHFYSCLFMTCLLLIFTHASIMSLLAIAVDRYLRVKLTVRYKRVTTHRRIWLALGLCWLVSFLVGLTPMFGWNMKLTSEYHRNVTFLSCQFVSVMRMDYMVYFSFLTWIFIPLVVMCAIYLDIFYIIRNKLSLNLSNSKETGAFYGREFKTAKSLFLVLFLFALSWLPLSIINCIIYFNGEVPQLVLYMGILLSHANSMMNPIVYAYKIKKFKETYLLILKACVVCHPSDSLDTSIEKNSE
Protocol: (§1) Binding assay methodology for the human data with antagonist radioligands. […] Arch. Pharmacol. 357: 1-9, (1998). The cells were grown adherently and maintained in Dulbecco's Modified Eagles Medium with nutrient mixture F12 (DMEM/F12) without nucleosides, containing 10% fetal calf serum, penicillin (100 U/ml), streptomycin (100 μg/ml), L-glutamine (2 mM) and Geneticin (G418, 0.2 mg/ml) at 37° C. in 5% CO2/95% air. Cells were split 2 or 3 times weekly at a ratio between 1:5 and 1:20. For membrane preparation the culture medium was removed and the cells were washed with PBS and scraped off T75 flasks in ice-cold hypotonic buffer (5 mM Tris HCl, 2 mM EDTA, pH 7.4). The cell suspension was homogenized with Polytron and the homogenate was spun for 10 min at 1,000×g. The supernatant was then centrifuged for 30 min at 100,000×g. The membrane pellet was resuspended in 50 mM Tris HCl buffer pH 7.4 (for A3 adenosine receptors: 50 mM Tris HCl, 10 mM MgCl2, 1 mM EDTA) and incubated with 3 UI/ml of Adenosine deaminase for 30 min at 37° C. Then the suspension was frozen at −80° C. HEK 293 cells transfected with the human recombinant A2B adenosine receptor were obtained from Receptor Biology, Inc. (Beltsville, Md., USA).
Binding of [^3H]-MRE 3008F20 to CHO cells transfected with the human recombinant A3 adenosine receptors was performed according to Varani et al., 2000. Competition experiments were carried out in duplicate in a final volume of […] in test tubes containing 1 nM [^3H]-MRE 3008F20, 50 mM Tris HCl buffer, 10 mM MgCl2, 1 mM EDTA pH 7.4 and 100 μl of diluted membranes (50 μg of protein/assay) and at least 8-10 different concentrations of examined antagonists. Incubation time was 120 min at 4° C., according to the results of previous time-course experiments.

[3] = target: T3, human A2A receptors (Homo sapiens, UniProt P29274); experiment: [^3H] SCH58261 binding to human A2A receptors expressed in CHO cells (antagonist radioligand); details: human A2A, CHO cells, antagonist radioligand; read-out: [^3H] SCH58261 binding to human A2A receptors expressed in CHO cells Ki
T3 construct: expressed in transfected cells; host or cells: CHO cells
Protocol: as §1
Binding of [^3H]-SCH 58261 to CHO cells transfected with the human recombinant A2A adenosine receptors (50 μg of protein/assay) was performed using 0.2 ml 50 mM Tris HCl buffer, 10 mM MgCl2 pH 7.4 and at least 6-8 different concentrations of antagonists studied for an incubation time of 30 min at 25° C.

[4] = target: T4, human A1 adenosine receptors (Homo sapiens, UniProt P30542); experiment: Displacement of [^3H]CHA binding, human A1 adenosine receptors in CHO cells (agonist radioligand)
T4 sequence (P30542 1-326): T1 sequence (P30542 1-326)

[5] = target: T5, human hA2B receptors (Homo sapiens, UniProt P29275); experiment: [^3H] DPCPX binding to human hA2B receptors expressed in HEK293 cells (antagonist radioligand); details: human A2B, HEK293 cells, antagonist radioligand; read-out: [^3H] DPCPX binding to human hA2B receptors expressed in HEK293 cells Ki
T5 construct: host or cells: HEK 293 cells
T5 sequence (P29275 1-332): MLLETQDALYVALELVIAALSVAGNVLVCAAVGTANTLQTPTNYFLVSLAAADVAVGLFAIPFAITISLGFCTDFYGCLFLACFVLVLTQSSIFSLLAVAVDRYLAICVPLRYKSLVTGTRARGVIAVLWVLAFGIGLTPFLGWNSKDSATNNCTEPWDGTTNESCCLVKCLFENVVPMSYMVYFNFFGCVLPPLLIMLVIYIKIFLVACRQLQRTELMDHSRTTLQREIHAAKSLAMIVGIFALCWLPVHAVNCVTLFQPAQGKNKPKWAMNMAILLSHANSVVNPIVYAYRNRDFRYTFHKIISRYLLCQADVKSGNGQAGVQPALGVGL
Protocol: as §1
Competition experiments of [^3H]-DPCPX to HEK-293 cells transfected with the human recombinant A^2B adenosine receptor were performed for 60 min at 25° C. in 0.1 ml of 50 mM Tris HCl buffer, 10 mM MgCl2, 1 mM EDTA, 0.1 mM benzamidine pH 7.4, 2 IU/ml adenosine deaminase containing 34 nM [^3H]-DPCPX, diluted membranes (20 μg of protein/assay) and at least 6-8 different concentrations of selected compounds.

[6] = target: T6, human A2A adenosine receptors (Homo sapiens, UniProt P29274); experiment: Displacement of [^3H]CGS21680 binding, human A2A adenosine receptors in CHO cells (agonist radioligand); details: human A2A, CHO cells, [^3H]CGS21680; read-out: Ki(A2A). Displacement of [^3H]CGS21680 binding to human A2A adenosine receptors exp. in CHO cells.
T6 construct: expressed in transfected cells; host or cells: CHO cells

[7] = target: T7, human A3 adenosine receptors (Homo sapiens, UniProt P0DMS8); details: for A1/A3: ratio Ki(A1)/Ki(A3), agonist radioligands
T7 sequence (P0DMS8 1-318): T2 sequence (P0DMS8 1-318)

[8] = tested on: A3 receptor; details: cited from earlier work

T6 sequence (P29274 whole entry): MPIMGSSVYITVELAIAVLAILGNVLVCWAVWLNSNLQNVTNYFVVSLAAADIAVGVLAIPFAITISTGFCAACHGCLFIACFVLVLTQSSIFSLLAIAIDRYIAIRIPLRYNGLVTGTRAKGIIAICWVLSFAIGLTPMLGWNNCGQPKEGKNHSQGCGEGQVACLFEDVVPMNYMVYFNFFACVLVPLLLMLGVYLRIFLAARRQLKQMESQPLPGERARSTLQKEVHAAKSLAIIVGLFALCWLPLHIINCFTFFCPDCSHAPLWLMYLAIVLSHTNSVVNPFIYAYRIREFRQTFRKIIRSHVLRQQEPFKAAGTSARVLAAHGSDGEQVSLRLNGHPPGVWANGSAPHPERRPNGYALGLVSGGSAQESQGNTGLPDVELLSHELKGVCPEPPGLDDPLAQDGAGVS
T3 sequence (P29274 whole entry): as above

Row | Compound | melting point | Ki [1] | Ki [2] | Ki [3] | Ki [4] | Ki [5] | Ki [6] | Ki [7] | A1/A3 [7] | selective for the A3 receptor versus either the A1 or A2A receptors [8]
1 | CCNC(=O)[C@H]1O[C@@H](n2cnc3c(NC(=O)Nc4ccc(S(=O)(=O)NCC)cc4)ncnc32)[C@H](O)[C@@H]1O [Compound 85, 1-Deoxy-1-[6-[[[[4-[N-(ethyl)aminosulfonyl]phenyl]amino]-carbonyl]amino]-9H-purin-9-yl]-N-ethyl-β-D-ribofuranuronamide] | 180 to 183 °C | > 1000 nM | 237 nM | > 1000 nM | 250 nM | > 1000 nM | > 1000 nM | 23 nM | 10.86 | 
2 | CCCCCNS(=O)(=O)c1ccc(NC(=O)Nc2ncnc3c2ncn3[C@@H]2O[C@H](C(=O)NCC)[C@@H](O)[C@H]2O)cc1 [Compound 87, 1-Deoxy-1-[6-[[[[4-[N-(pentyl)aminosulfonyl]phenyl]-amino]carbonyl]amino]-9H-purin-9-yl]-N-ethyl-β-D-ribofuranuronamide] | 199 °C | > 1000 nM | 886 nM | > 1000 nM | 445 nM | > 1000 nM | > 1000 nM | 80 nM | 5.56 | 
3 | CCNC(=O)[C@H]1O[C@@H](n2cnc3c(NC(=O)Nc4ccc(S(=O)(=O)NC5CC5)cc4)ncnc32)[C@H](O)[C@@H]1O [Compound 89, 1-Deoxy-1-[6-[[[[4-[N-(cyclopropyl)aminosulfonyl]phenyl]amino]-carbonyl]-amino]-9H-purin-9-yl]-N-ethyl-β-D-ribofuranuronamide] | 180 °C (dec.) | > 1000 nM | 340 nM | > 1000 nM | 290 nM | > 1000 nM | > 1000 nM | 25 nM | 11.6 | 
4 | CCNC(=O)[C@H]1O[C@@H](n2cnc3c(NC(=O)Nc4ccc(S(=O)(=O)NC(C)(C)C)cc4)ncnc32)[C@H](O)[C@@H]1O [Compound 92, 1-Deoxy-1-[6-[[[[4-[N-(1,1-dimethylethyl)aminosulfonyl]phenyl]amino]-carbonyl]amino]-9H-purin-9-yl]-N-ethyl-β-D-ribofuranuronamide] | 185 °C | > 1000 nM | 330 nM | > 1000 nM | 250 nM | > 1000 nM | > 1000 nM | 20 nM | 12.5 | 
5 | CCNC(=O)[C@H]1O[C@@H](n2cnc3c(NC(=O)Nc4ccc(S(=O)(=O)NC56CC7CC(CC(C7)C5)C6)cc4)ncnc32)[C@H](O)[C@@H]1O [Compound 93, 1-Deoxy-1-[6-[[[[4-[N-(adamantan-1-yl)sulfonyl]phenyl]amino]carbonyl]-amino]-9H-purin-9-yl]-N-ethyl-β-D-ribofuranuronamide] | 192 °C | > 1000 nM | 310 nM | > 1000 nM | 240 nM | > 1000 nM | > 1000 nM | 35 nM | 7.5 | 
6 | CNC(=O)[C@H]1O[C@@H](n2cnc3c(NCc4cccc(I)c4)ncnc32)[C@H](O)[C@@H]1O [IB-MECA, N^6-(3-iodo-benzyl)-adenosine-5′-N-methyl-uronamide] |  |  |  |  |  |  |  |  |  | 50 fold
